Columns and labels:
[1] = test system: dopaminergic neurons; assay: Influence of BP on migration of dopaminergic neurons out from neurospheres (Sox-1/TH/DAPI fluorescent staining); type: cell-based; details: FIG. 4
Experimental: (§1) The dopaminergic progenitor cells provided by [Preparation Example B-2] were cultured in the conditional medium provided by [Preparation Example A-2] at 37° C., 5% CO2 for 24 hours. Then, the cells were divided into six groups (see FIGS. 3 and 4), three groups (see FIGS. 5 and 6) and independently subjected to the following treatments: • (1) Control group: cells were continuously cultured in the conditional medium provided by [Preparation Example A-2] […]
To understand the influence of BP on dopaminergic neurons, when the cells in each group provided by [Preparation Example C] were continuously cultured for ten days, the cells were fixed and then subjected to fluorescent staining with the antibodies including Sox-1 (purchased from Santa Cruz company, product number: SC-17318), TH (tyrosine hydroxylase; purchased from Millipore company, product number: MAB152) and DAPI (diamidino-2-phenylindole; purchased from ThermoFisher Scientific company, product number: D1306), respectively (Sox-1 expresses in dopaminergic progenitor cells, TH expresses in dopaminergic neurons, and DAPI is a nuclear-specific dye). Then, the dopaminergic progenitor cells (green fluorescence), dopaminergic neurons (red fluorescence) and nuclei (blue fluorescence) were observed by an upright fluorescent microscope (purchased from Nikon Company).

[2] = test system: dopaminergic progenitor cells; assay: Influence of BP on differentiation of dopaminergic progenitor cells into dopaminergic neurons (cell morphology, inverted microscope); type: cell-based; details: FIG. 3
Experimental: as §1
To understand the influence of BP on the differentiation of dopaminergic progenitor cells into dopaminergic neurons, the differentiation process of the cells in control group provided by [Preparation Example C] was continuously taken from a JuLI™Br cell imaging analyzer (purchased from NanoEnTek company) (results are shown in FIG. 2), and the cell morphology in each group provided by [Preparation Example C] was taken from and recorded by an inverted microscope (purchased from Nikon company) when the cells were continuously cultured for six days (results are shown in FIG. 3).

CCCC=C1OC(=O)c2ccccc21 [BP, n-butylidenephthalide]
phenomenon of dopaminergic neurons migrating out from the neurospheres, comparison among BP concentrations ([1]; BP 50 µM ("BP (50)" group), ten days): most significant | phenomenon of dopaminergic neurons migrating out from the neurospheres, compared to control group ([1]; BP at 5, 10, 20, 50 and 100 µM in conditional medium, cultured ten days): can be observed | influence on the normal neural differentiation of dopaminergic progenitor cells ([2]; BP 5-100 µM, six days): does not influence | formation of nerve fibers ([2]; BP at 5, 10, 20, 50 and 100 µM in conditional medium (Purmorphamine + FGF-8b), cultured six days): can be observed

— patent publication US20230159889A1, “USE OF N-BUTYLIDENEPHTHALIDE IN DOPAMINERGIC PROGENITOR CELL TRANSPLANTATION” (GWO XI STEM CELL APPLIED TECHNOLOGY CO., LTD., priority 2018, published 2023)
